Assay results published in patent publication US20230210108A1, “ANTIMICROBIAL COATING FOR POLYMERIC FOOD PACKAGING” (VACOPAK INDUSTRIES LTD., priority 2020, published 2023).

How the values were obtained:
[1] = test system: Gram-negative bacteria E. Coli; test: Antimicrobial activity of coatings on PET surfaces against Gram-negative bacteria (CFU count); type: cell-based; conditions: agent 5 mg/ml embedded in chitosan or alginate matrix, coated on PET; FIG. 5A
Protocol: (§1) Air plasma was applied onto each surface for three (3) minutes prior to coating. The surfaces used in the Examples were polyethylene (PET) sheets. The coating composition was prepared by suspending polymer(s) in water together with the antimicrobial agent(s). The coating composition was then applied on the surface, forming a layer of about 25 µm, using BIUGED and BGD219 instruments in a speed of 6 mm/sec, as shown in FIG. 4. Each coating composition was prepared a few hours, or about 24 hours prior to being applied on the surface. The antimicrobial activity of several coatings was tested against Gram-negative bacteria E. Coli and Gram-positive bacteria Listeria (FIGS. 5A and 5B, respectively, n=3 per each test). Each test was repeated twice (suffix A and B; in FIGS. 5A to 5B).

[2] = test system: Gram-positive bacteria Listeria; test: Antimicrobial activity of coatings on PET surfaces against Gram-positive bacteria (CFU count); type: cell-based; conditions: agent 5 mg/ml embedded in chitosan or alginate matrix, coated on PET; FIG. 5B
Protocol: as §1

Compound	reduction of bacterial count (CFU) [1]	reduction of viral count, as measured in colony-forming units (CFU) [2]
CCCCCCCCCCCC(=O)N[C@@H](CCCN=C(N)N)C(=O)OCC [lauryl alginate, Lauryl alginate]	at least one order of magnitude	at least one order of magnitude
O=C1O[C@H]([C@@H](O)CO)C(O)=C1O [ascorbic acid, Ascorbic acid]	at least one order of magnitude	at least one order of magnitude
Nisin	–	high cytotoxicity
